Drawing on PubChem BioAssay (NCI), this text covers GI50 and TGI for 17 molecules.

Structures are written as SMILES.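 Cultured in 96-well plates, cells were exposed to test compound for 48 hours across five concentrations. GI50 is the concentration that inhibits growth by half. TGI denotes the concentration required for complete inhibition of growth.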

The subject of the first experiment is HOP-92 NSCLC. In words: NCI anticancer screen, dose series, 48 h.
As for `O=C(Nc1ccc(OC(F)(F)F)cc1)c1sccc1NCc1ccnc2ccccc12`, the GI50 was 2.5 µM and the TGI came to 19 µM.
`CCN(CC)c1ccc(NC(=S)NN(C)C)cc1`: the TGI was greater than 10 µM.
Consider `Nc1cc(N)c2nc(-c3ccccc3)c(Oc3ccc(F)cc3)nc2c1`, for which the GI50 is 12.2 µM and the TGI worked out at 29.8 µM.
For `COc1ccc(-c2cc(-c3ccc(Cl)cc3)c(C#N)c(=O)n2CCCCC(=O)Nc2ccccc2N)cc1` the same measures were 2.59 µM and 9.99 µM.
For `CCOC(=O)c1c(NC(=O)c2ccc(C(C)C)cc2)sc2c(CN(C)C)c(O)ccc12` the same measures were 1.44 µM and 3.1 µM.
With `COc1ccc(C(=O)N2c3ccccc3Sc3ccccc32)c(F)c1`, the GI50 is 0.238 µM and the TGI is 59.7 µM.
For `CC1(C)N=C(N)N=C(N)N1c1ccc(CCc2ccccc2)c(Cl)c1` the same measures were 1.14 µM and 9.51 µM.
With `Cc1ccc(C(=O)Nc2ccc(CN3CCN(C)CC3)c(C(F)(F)F)c2)cc1C#Cc1cnc(N)c2ccc(F)cc12`, the GI50 is 0.18 µM and the TGI was 0.944 µM.
`CC1(C)CCC(C)(C)c2cc(C(=O)Nc3ccc(C(=O)O)cc3)ccc21` gave a TGI greater than 100 µM.
The same measure, in the same setting: the figure for `Clc1ccccc1NN(Cc1ccccn1)c1ccccc1Cl` is 30.5 µM; for `Cc1cc2c(C(C)C)c(O)c(O)c(C=Nc3cc(C(F)(F)F)ccc3Cl)c2c(O)c1-c1c(C)cc2c(C(C)C)c(O)c(O)c(C=Nc3cc(C(F)(F)F)ccc3Cl)c2c1O` it is 53.5 µM.
Regarding `S=C(N/N=C/c1cc(Cl)cc(Cl)c1)NC12CC3CC(CC(C3)C1)C2`, the GI50 was 2.5 µM and the TGI turned out to be 12 µM.
`CC(CO)[C@H]1OC(=O)C=C2[C@@]13O[C@@H]3[C@H]1OC(=O)[C@@]3(C)[C@H]4O[C@H]4C[C@@]2(C)[C@@H]13` (some centres undefined) registered a TGI greater than 26.9 µM.
As to `COc1cc2cc(Oc3ccc(NC(=O)c4cccc(C(F)(F)F)c4)cc3)c(C)nc2cc1OC`, the GI50 is 3.08 µM and the TGI amounted to 33.2 µM.
Take `COc1cc(/C=C2\CN(C)CC3=C2Nc2nc(SC)[nH]c(=O)c2C3c2cc(OC)c(OC)c(OC)c2)cc(OC)c1OC` (centres undefined): the GI50 was 3.4 µM and the TGI was determined as 10.9 µM.
`Cc1nc(SCC(N)=O)c2sc(=S)n(-c3ccccc3)c2n1` yielded a TGI greater than 10 µM.
The molecule `COc1cc(-c2oc3ccccc3c(=O)c2O)cc(OC)c1OC` came in with a TGI of 44 µM.

The subject of another experiment is 786-0 renal. The experiment in a line: NCI anticancer screen, dose series, 48 h.
For the molecule `O=C(Nc1ccc(OC(F)(F)F)cc1)c1sccc1NCc1ccnc2ccccc12`, the GI50 was 7.53 µM and the TGI was greater than 88.1 µM.
In turn, `CCN(CC)c1ccc(NC(=S)NN(C)C)cc1` gave a TGI greater than 10 µM.
For `Nc1cc(N)c2nc(-c3ccccc3)c(Oc3ccc(F)cc3)nc2c1`, the GI50 is 15.7 µM and the TGI was determined as 36.3 µM.
In the same order, the values of `COc1ccc(-c2cc(-c3ccc(Cl)cc3)c(C#N)c(=O)n2CCCCC(=O)Nc2ccccc2N)cc1` are 7.46 µM and greater than 100 µM.
Take `CCOC(=O)c1c(NC(=O)c2ccc(C(C)C)cc2)sc2c(CN(C)C)c(O)ccc12`: the GI50 is 1.79 µM and the TGI turned out to be 3.36 µM.
In the same order, the values of `COc1ccc(C(=O)N2c3ccccc3Sc3ccccc32)c(F)c1` are 0.675 µM and greater than 100 µM.
For `CC1(C)N=C(N)N=C(N)N1c1ccc(CCc2ccccc2)c(Cl)c1` the same measures were 0.179 µM and 14.6 µM.
In the same order, the values of `Cc1ccc(C(=O)Nc2ccc(CN3CCN(C)CC3)c(C(F)(F)F)c2)cc1C#Cc1cnc(N)c2ccc(F)cc12` are 0.305 µM and 0.731 µM.
Turning to `CC1(C)CCC(C)(C)c2cc(C(=O)Nc3ccc(C(=O)O)cc3)ccc21`, the TGI was greater than 56.5 µM.
For the molecule `Clc1ccccc1NN(Cc1ccccn1)c1ccccc1Cl`, the TGI amounted to 31.6 µM.
Same read-out and setting: next, `Cc1cc2c(C(C)C)c(O)c(O)c(C=Nc3cc(C(F)(F)F)ccc3Cl)c2c(O)c1-c1c(C)cc2c(C(C)C)c(O)c(O)c(C=Nc3cc(C(F)(F)F)ccc3Cl)c2c1O`: greater than 100 µM.
Consider `S=C(N/N=C/c1cc(Cl)cc(Cl)c1)NC12CC3CC(CC(C3)C1)C2`, for which the GI50 was 8.63 µM and the TGI is greater than 100 µM.
`CC(CO)[C@H]1OC(=O)C=C2[C@@]13O[C@@H]3[C@H]1OC(=O)[C@@]3(C)[C@H]4O[C@H]4C[C@@]2(C)[C@@H]13` (some centres undefined) yielded a TGI greater than 28.1 µM.
For the molecule `COc1cc2cc(Oc3ccc(NC(=O)c4cccc(C(F)(F)F)c4)cc3)c(C)nc2cc1OC`, the GI50 is 5.31 µM and the TGI is greater than 100 µM.
Take `COc1cc(/C=C2\CN(C)CC3=C2Nc2nc(SC)[nH]c(=O)c2C3c2cc(OC)c(OC)c(OC)c2)cc(OC)c1OC` (centres undefined): the GI50 was 4.01 µM and the TGI worked out at 16.9 µM.
`Cc1nc(SCC(N)=O)c2sc(=S)n(-c3ccccc3)c2n1`: the TGI was greater than 10 µM.
On the same count and under the same terms, the figure for `COc1cc(-c2oc3ccccc3c(=O)c2O)cc(OC)c1OC` is 41.6 µM.

The test system of a further experiment is HT29 colon. In words: NCI anticancer screen, dose series, 48 h.
Regarding `O=C(Nc1ccc(OC(F)(F)F)cc1)c1sccc1NCc1ccnc2ccccc12`, the GI50 is 3.36 µM and the TGI is greater than 100 µM.
For `CCN(CC)c1ccc(NC(=S)NN(C)C)cc1`, the TGI was greater than 10 µM.
As to `Nc1cc(N)c2nc(-c3ccccc3)c(Oc3ccc(F)cc3)nc2c1`, the GI50 was 22.7 µM and the TGI came to 50.7 µM.
Turning to `COc1ccc(-c2cc(-c3ccc(Cl)cc3)c(C#N)c(=O)n2CCCCC(=O)Nc2ccccc2N)cc1`, the GI50 was 3.44 µM and the TGI is greater than 100 µM.
For the molecule `CCOC(=O)c1c(NC(=O)c2ccc(C(C)C)cc2)sc2c(CN(C)C)c(O)ccc12`, the GI50 was 3.26 µM and the TGI came out at 14.1 µM.
`COc1ccc(C(=O)N2c3ccccc3Sc3ccccc32)c(F)c1`: the GI50 was 0.38 µM and the TGI is 43.3 µM.
In the same order, the values of `CC1(C)N=C(N)N=C(N)N1c1ccc(CCc2ccccc2)c(Cl)c1` are 0.0531 µM and 12.7 µM.
As for `Cc1ccc(C(=O)Nc2ccc(CN3CCN(C)CC3)c(C(F)(F)F)c2)cc1C#Cc1cnc(N)c2ccc(F)cc12`, the GI50 was 0.133 µM and the TGI came out at 0.865 µM.
For `CC1(C)CCC(C)(C)c2cc(C(=O)Nc3ccc(C(=O)O)cc3)ccc21`, the TGI was greater than 68.2 µM.
The same measure, in the same setting: the figure for `Clc1ccccc1NN(Cc1ccccn1)c1ccccc1Cl` is 29.4 µM; for `Cc1cc2c(C(C)C)c(O)c(O)c(C=Nc3cc(C(F)(F)F)ccc3Cl)c2c(O)c1-c1c(C)cc2c(C(C)C)c(O)c(O)c(C=Nc3cc(C(F)(F)F)ccc3Cl)c2c1O` it is 79.3 µM.
In the case of `S=C(N/N=C/c1cc(Cl)cc(Cl)c1)NC12CC3CC(CC(C3)C1)C2`, the GI50 was greater than 58.3 µM and the TGI was greater than 100 µM.
With `CC(CO)[C@H]1OC(=O)C=C2[C@@]13O[C@@H]3[C@H]1OC(=O)[C@@]3(C)[C@H]4O[C@H]4C[C@@]2(C)[C@@H]13` (some centres undefined), the TGI turned out to be 20.7 µM.
`COc1cc2cc(Oc3ccc(NC(=O)c4cccc(C(F)(F)F)c4)cc3)c(C)nc2cc1OC`: the GI50 was 6.65 µM and the TGI was greater than 100 µM.
As for `COc1cc(/C=C2\CN(C)CC3=C2Nc2nc(SC)[nH]c(=O)c2C3c2cc(OC)c(OC)c(OC)c2)cc(OC)c1OC` (centres undefined), the GI50 was 2.35 µM and the TGI was 5.22 µM.
On to `Cc1nc(SCC(N)=O)c2sc(=S)n(-c3ccccc3)c2n1`, for which the TGI was greater than 10 µM.
Turning to `COc1cc(-c2oc3ccccc3c(=O)c2O)cc(OC)c1OC`, the TGI was greater than 100 µM.

The test system of a further experiment is SK-MEL-2 melanoma. In words: NCI anticancer screen, dose series, 48 h.
For `O=C(Nc1ccc(OC(F)(F)F)cc1)c1sccc1NCc1ccnc2ccccc12`, the GI50 was 1.28 µM and the TGI was determined as 4.3 µM.
In turn, `CCN(CC)c1ccc(NC(=S)NN(C)C)cc1` had a TGI greater than 10 µM.
As to `Nc1cc(N)c2nc(-c3ccccc3)c(Oc3ccc(F)cc3)nc2c1`, the GI50 is 43 µM and the TGI is greater than 100 µM.
On to `COc1ccc(-c2cc(-c3ccc(Cl)cc3)c(C#N)c(=O)n2CCCCC(=O)Nc2ccccc2N)cc1`, for which the GI50 is 9.05 µM and the TGI came to 37.8 µM.
In the same order, the values of `CCOC(=O)c1c(NC(=O)c2ccc(C(C)C)cc2)sc2c(CN(C)C)c(O)ccc12` are 2.14 µM and 4.59 µM.
For `COc1ccc(C(=O)N2c3ccccc3Sc3ccccc32)c(F)c1` the same measures were 0.531 µM and greater than 100 µM.
Consider `CC1(C)N=C(N)N=C(N)N1c1ccc(CCc2ccccc2)c(Cl)c1`, for which the GI50 is 1.01 µM and the TGI was determined as 17.5 µM.
